# Test results published in patent US9676779B2, “Small molecule CFTR correctors” (DISCOVERYBIOMED, INC., priority 2012, dated 2017).
# Columns and labels:
# Assay type in all cases: cell-based
# [1] = target: T1, delF508-CFTR (Homo sapiens, UniProt P13569, DEL508-508); test: SPQ halide-sensitive fluorescence dye profiling assay (rescue of halide efflux); details: for EC50 / EC50 (μM): SPQ assay, 8-point concentration-response curve, CFBE41o− cells; for Emax: VX-809 at 3 μM treated as 100% efficacy; for Efficacy Comparison to 3 μM VX-809: compared to VX-809 at 3 μM; for potency and efficacy versus VX-809 in SPQ profiling: compounds advanced to further profiling
# T1 construct: Unaltered CFBE41o− cells were used as the model; endogenous in cells; host or cells: CFBE41o- human CF bronchial epithelial cells (delF508 homozygous, not overexpressing)
# Protocol: The method of profiling can include detecting the rescue of halide efflux from a cell. The step of detecting a rescue of halide efflux from the cell can be monitored using the halide quenched dye 6-methoxy-N-(3-sulfopropyl)-quinolinium (SPQ, Molecular Probes Inc., Eugene, Oreg.). In this method, cells are treated with a compound as described herein for a period of time (e.g., 48 hours). The rescue or correction of halide efflux is then detected using the SPQ assay with the halide dye. […] Optionally, the halide efflux is chloride efflux. The method of screening can further comprise performing the method with multiple concentrations of the compound.
# The compounds were initially subjected to the SPQ halide-sensitive fluorescence dye profiling assay for rescue or correction of membrane chloride ion permeability or transport with an 8-point concentration-response curve. The EC50 values for the compounds described herein were determined and compared to the efficacy of the industry standard Vertex 809 (VX-809; Vertex Pharmaceuticals, Cambridge, Mass.) at 3 μM, which is the maximally effective profiling dose for VX-809 (Table 1). The VX-809 dosage at 3 μM was treated as having 100% efficacy in the comparison.
# To perform the SPQ high throughput screening assay, CFBE41o− cells were seeded into 96-well microtiter plates and were loaded with the fluorescent halide-sensitive dye, SPQ, in serum-containing culture medium. Certain wells were loaded with known positive control corrector molecules, including VX-809. The test compounds were loaded into wells and were tested in triplicate wells at a 10 μM dose and incubated over 48 hours at room temperature. During the 48 hour period, SPQ was absorbed. Plates were washed in a sodium chloride (NaCl) based Ringer and read once over two minutes to set the baseline SPQ fluorescence activity. Then, NaCl was replaced by sodium nitrate (NaNO3) based Ringer. The plates were read twice over four minutes. The primary high throughput screen (HTS) data were analyzed to detect any function of rescued delF508-CFTR under basal conditions. The plate was read up to two times to complete the SPQ HTS assay.
# [2] = target: T2, delF508-CFTR chloride ion channels (Homo sapiens, UniProt P13569, DEL508-508); test: Ussing chamber short-circuit current electrical assay
# T2 construct: functional delF508-CFTR chloride ion channels in the apical membrane of a polarized CF human bronchial epithelium; endogenous in cells
# Protocol: The method of profiling can further include determining the degree of functional delF508-CFTR chloride ion channels in the apical cell membrane of cells (e.g., polarized CF human airway epithelial cells). This method can use electrophysiological methods, such as Ussing chamber-based measurement of short-circuit current, voltammeter-based measurement of open-circuit transepithelial voltage and transepithelial resistance, and patch-clamp electrophysiology.
# An electrical assay was also performed to determine the functional rescue of delF508-CFTR to the apical cell membrane in a polarized epithelium using the compounds described herein. The metrics analyzed were the basal short-circuit Cl^− current, the change or delta Cl^− current stimulated by forskolin, the total stimulated Cl^− current (basal and forskolin), and the change or delta Cl^− current inhibited by GlyH101. For exemplary purposes, DMSO (100 nM) and VX-809 (100 nM equivalent) treatments were controls, and a CFCL corrector was tested (see FIG. 9).
# Only high-resistance cell monolayers (>800 to 1,000 Ohms per cm^2) were used in the experiments. Basal short-circuit current (ISC) was measured and documented. Amiloride was added to the apical side of the Ussing chamber to block any contribution of ENaC or other sodium or cation channels under basal or stimulated conditions. The effect of amiloride was negligible under these cell culture conditions. In the continued presence of amiloride (100 μM), forskolin (10 μM) was added to both sides of the monolayer to selectively open any delF508-CFTR chloride channels in the apical cell membrane. This activation step uncovered any remaining corrected delF508-CFTR chloride ion channels in the apical membrane of the polarized CF human bronchial epithelium. The final step was the addition of a CFTR-selective inhibitor, GlyH101 (100 μM), to reverse the effect of forskolin.
# Ussing chamber-derived short-circuit current data were obtained for Compounds C-15 and C-73 (see FIGS. 10 and 11). […] The same protocol of additions of drugs to the apical side of the Ussing chamber was performed on each cell monolayer as described above. CPT-cAMP and IBMX are equivalent and CFTR-specific agonists to forskolin. As described above, VX-770 is a CFTR potentiator drug added to activate any remaining corrected CFTR present.
# [3] = target: T1, delF508-CFTR; test: CFTR Western blot / biochemical rescue assay (band B to band C); details: CF human airway epithelial cells; 10 nM-10 μM; 10% serum containing medium
# Protocol: The method of profiling can also include determining the degree of CFTR glycosylation or CFTR protein processing. Optionally, this method can be performed using Western blot analysis. In this method, cells can be treated with the compound as described herein for a period of time (e.g., 24 hours) and, optionally, at multiple concentrations (e.g., 4 doses).
# The method described in Example 3 was repeated with doses of the test compound of 0.01 μM, 0.1 μM, 1 μM, 10 μM, and 50 μM in Dulbecco's Modified Eagle Medium (DMEM) with 10% fetal bovine serum (FBS) for 48 hours at 37° C. Unaltered CFBE41o− cells were used as the model. A Western blot analysis of the lysates (10-50 μg total protein) was performed using the MM13-4 antibody for human CFTR to monitor changes in the CFTR protein. […] VX-809 and DMSO were used as the controls.
# Cells were lysed in RIPA buffer (50 mM Tris-HCl, pH 7.4, 150 mM NaCl, 1% NP-40, 0.5% Deoxycholic Acid, 0.1% SDS) plus a cocktail of protease inhibitors (Roche; Basel, Switzerland). Protein concentrations in the cell lysates were measured by BCA Protein Assay using BSA as standard (Pierce; Rockford, Ill.). Proteins (25 μg) were resolved on an 8% SDS-PAGE gel and transferred to PDVF membranes. Total CFTR in the lysate was detected by immunoblotting using a specific CFTR antibody (MM13-4 from Upstate, 1:500 dilution).
# The compounds were then subjected to a biochemical assay to define which hit compounds rescued the band B core glycosylated endoplasmic reticulum (ER) form of delF508-CFTR within the cell interior into the maturely glycosylated band C form within the secretory pathway for proteins and within the plasma membrane. Effective compounds stabilized the band B form of CFTR and caused more of this form to accumulate at the level of the ER.
# By way of example, the delF508-CFTR mutation can be rescued from the ER with low temperature incubation for 48 hours (see examples in the blots as the positive control). The DMSO control is the simulated CF condition where the delF508-CFTR-expressing cells were grown at physiological temperature. […]
# T2 sequence (P13569 with tags, fused parts or gaps DEL508-508): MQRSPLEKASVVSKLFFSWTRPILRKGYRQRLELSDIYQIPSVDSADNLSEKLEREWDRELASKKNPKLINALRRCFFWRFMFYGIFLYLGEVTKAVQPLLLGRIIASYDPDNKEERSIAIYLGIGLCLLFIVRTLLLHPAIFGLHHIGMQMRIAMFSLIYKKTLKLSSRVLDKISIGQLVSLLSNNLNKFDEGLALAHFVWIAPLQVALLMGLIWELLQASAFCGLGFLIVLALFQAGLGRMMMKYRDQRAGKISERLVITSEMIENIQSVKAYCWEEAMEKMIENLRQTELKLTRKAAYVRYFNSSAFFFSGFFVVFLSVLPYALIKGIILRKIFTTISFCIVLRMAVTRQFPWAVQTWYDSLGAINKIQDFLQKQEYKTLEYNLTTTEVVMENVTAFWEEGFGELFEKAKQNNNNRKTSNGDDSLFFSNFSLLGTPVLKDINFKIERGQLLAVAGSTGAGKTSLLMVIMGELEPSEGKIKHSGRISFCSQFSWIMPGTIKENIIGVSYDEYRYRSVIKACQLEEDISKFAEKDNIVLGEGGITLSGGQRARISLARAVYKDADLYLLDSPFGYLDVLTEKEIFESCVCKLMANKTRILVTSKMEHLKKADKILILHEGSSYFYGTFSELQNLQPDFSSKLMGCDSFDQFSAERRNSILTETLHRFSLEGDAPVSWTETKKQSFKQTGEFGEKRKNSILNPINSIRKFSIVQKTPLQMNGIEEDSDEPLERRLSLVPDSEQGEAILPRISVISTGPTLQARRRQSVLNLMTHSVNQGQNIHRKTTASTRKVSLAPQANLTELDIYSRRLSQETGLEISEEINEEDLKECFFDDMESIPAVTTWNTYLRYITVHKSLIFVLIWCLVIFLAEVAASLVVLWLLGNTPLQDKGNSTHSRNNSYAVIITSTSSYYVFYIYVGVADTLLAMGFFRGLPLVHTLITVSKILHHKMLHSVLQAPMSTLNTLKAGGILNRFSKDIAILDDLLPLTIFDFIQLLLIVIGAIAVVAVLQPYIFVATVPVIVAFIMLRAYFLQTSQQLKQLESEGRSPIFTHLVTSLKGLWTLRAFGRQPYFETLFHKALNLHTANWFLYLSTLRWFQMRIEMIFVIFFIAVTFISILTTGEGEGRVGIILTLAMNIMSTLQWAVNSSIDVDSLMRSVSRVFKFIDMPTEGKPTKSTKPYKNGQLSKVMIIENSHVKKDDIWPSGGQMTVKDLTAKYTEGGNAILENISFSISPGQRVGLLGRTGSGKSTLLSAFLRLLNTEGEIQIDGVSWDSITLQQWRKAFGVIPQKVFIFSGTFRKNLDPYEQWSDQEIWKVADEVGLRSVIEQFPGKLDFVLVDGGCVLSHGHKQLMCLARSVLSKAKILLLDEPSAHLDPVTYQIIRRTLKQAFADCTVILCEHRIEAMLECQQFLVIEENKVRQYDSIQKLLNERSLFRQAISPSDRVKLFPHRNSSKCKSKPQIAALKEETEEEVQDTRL
# T1 sequence (P13569 with tags, fused parts or gaps DEL508-508): as above
EC50 [1],Emax [1],Efficacy Comparison to 3 μM VX-809 [1],EC50 (μM) [1],SMILES,also measured
1100 nM,125%,5-fold greater than VX-809,,Cc1nn2c(C)c(C(=O)O)nnc2c1-c1ccc(OC2CCCC2)cc1 [Compound C-73],potency and efficacy versus VX-809 in SPQ profiling [1]: superior potency and efficacy to VX-809; correction of functional delF508-CFTR chloride ion channels (short-circuit current) ([2]; apical membrane of polarized CF human bronchial epithelium): superior potency and equivalent to greater efficacy versus VX-809
,,,,"CC(C)(C)c1cc(C(C)(C)C)c(NC(=O)c2c[nH]c3ccccc3c2=O)cc1O [VX-770, reference compound]","opening of additional delF508-CFTR channels (potentiation) ([2]; in the presence of forskolin, monolayer corrected with Compound C-15, FIG. 10): opens some additional delF508-CFTR channels"
,0%,,No effect,Cc1nn2c(C)c(C(N)=O)nnc2c1-c1ccc(Cl)c(Cl)c1 [Compound C-29],
9900 nM,170%,3-fold greater than VX-809,,COc1ccc(-c2c(C)nn3c(C)c(C(=O)O)nnc23)cc1OC [Compound C-6],
,0%,,No effect,CCOC(=O)c1ccc2c(-c3ccc(Cl)c(Cl)c3)n[nH]c2n1 [Compound C-66.1],
17800 nM,120%,Less than VX-809,,Cc1nn2c(C)c(C(=O)O)nnc2c1-c1ccc(O)cc1 [Compound C-9],
,0%,,No effect,Cc1cnc(-c2nnc3c(-c4ccc(Cl)c(Cl)c4)c(C)nn3c2C)o1 [Compound C-41],
,0%,,No effect,CCOc1ccc(-c2c(C)nn3c(C)c(C(=O)O)nnc23)cc1Cl [Compound C-60],
1900 nM,200%,,,Cc1nn2c(C)c(C(=O)O)nnc2c1-c1ccc(Cl)cc1 [Compound C-1],
,5%,,No effect,Cc1nnc(-c2nnc3c(-c4ccc(Cl)c(Cl)c4)c(C)nn3c2C)o1 [Compound C-42],
,0%,,No effect,Cc1c(C(=O)O)nnc2c(-c3ccccc3)c(-c3ccccc3)nn12 [Compound C-11],
500 nM,30%,Equivalent to VX-809,,Cc1nn2c(C)c(C(=O)OC3CCCC3)nnc2c1-c1ccc(Cl)c(Cl)c1 [Compound C-50],
12000 nM,20%,,,Cc1nn2c(C)c(C(=O)O)nnc2c1-c1ccc2c(c1)OCO2 [Compound C-57],
5700 nM,155%,2-fold greater than VX-809,,CCCOc1ccc(-c2c(C)nn3c(C)c(C(=O)O)nnc23)cc1 [Compound C-8],
3700 nM,110%,2-fold greater than VX-809,,Cc1nn2c(C)c(CS(C)(=O)=O)nnc2c1-c1ccc(Cl)c(Cl)c1 [Compound C-70],
3400 nM,50%,Equivalent to VX-809,,Cc1nn2c(C)c(C(=O)O)nnc2c1C1CCCCC1 [Compound C-51],
,-75%,,,CCOC(=O)c1nnc2c(-c3ccc(OC4CCCC4)cc3)c(C)nn2c1C [Compound C-73.1],
160 nM,110%,15-fold greater than VX-809,,CCOc1cc(-c2c(C)nn3c(C)c(C(=O)O)nnc23)ccc1Cl [Compound C-59],"potency and efficacy versus VX-809 in SPQ profiling [1]: superior potency and efficacy to VX-809; GlyH101-sensitive current, concentration-response ([2]; increasing concentrations, FIG. 12): stimulate increased amounts of GlyH101-sensitive current"
,0%,,No effect,CCOC(=O)c1nnc2c(-c3ccc(Cl)cc3)c(C)nn2c1C(=O)OCC [Compound C-28.1],
580 nM,0%,,,Cc1nn2c(C)c(C(=O)OC(C)(C)C)nnc2c1-c1ccc(Cl)c(Cl)c1 [Compound C-34],
,75%,Less than VX-809,,Cc1nn2c(C)c(C(=O)O)nnc2c1Cc1ccc(Cl)c(Cl)c1 [Compound C-53],
700 nM,100%,Equivalent to VX-809,,Cc1nn2c(C)c(C(=O)Oc3ccccc3)nnc2c1-c1ccc(Cl)c(Cl)c1 [Compound C-35],
1000 nM,120%,7-fold greater than VX-809,,CCOC(=O)c1nnc2c(-c3ccc(Cl)cc3)cnn2c1C [Compound C-12],potency and efficacy versus VX-809 in SPQ profiling [1]: superior potency and efficacy to VX-809; biochemical correction of the delF508-CFTR protein [3]: biochemical correction
2000 nM,100%,2.5-fold greater than VX-809,,CCCOC(=O)c1nnc2c(-c3ccc(Cl)cc3)c(C)nn2c1C [Compound C-20],

SMILES,EC50 [1],Emax [1],Efficacy Comparison to 3 μM VX-809 [1],EC50 (μM) [1],also measured
Cc1c(C(=O)O)nnc2c(-c3ccc(Cl)cc3)cnn12 [Compound C-2],1000 nM,170%,10-fold greater than VX-809,,potency and efficacy versus VX-809 in SPQ profiling [1]: superior potency and efficacy to VX-809; biochemical correction of the delF508-CFTR protein [3]: biochemical correction
COC(=O)C(=O)c1nnc2c(-c3ccc(Cl)c(Cl)c3)c(C)nn2c1C [Compound C-32.1],,5%,,No effect (toxic,
